From publication PMC10692473 (Acta Pharmaceutica Sinica. B, 2023)
≈ marks a conversion by molar mass, not a printed value.

How the values were obtained:
[1] = biological target: S. aureus gyrase (Staphylococcus aureus, UniProt P0A0K8); assay: Gyrase inhibitory assay; assay type: biochemical
[2] = biological target: E. coli gyrase (Escherichia coli, UniProt P0AES6); assay: Gyrase inhibitory assay; assay type: biochemical
[3] = system: S. aureus (ATCC29213); assay: Antibacterial assay; details: Staphylococcus aureus, ATCC29213, read-out: MIC S. aureus (ATCC29213)
[4] = system: E. coli (ATCC25922); assay: Antibacterial assay; details: Escherichia coli, ATCC25922, read-out: MIC E. coli (ATCC25922)
[5] = system: methicillin-resistant S. aureus (ATCC43300); assay: Mouse model of sepsis induced by MRSA; assay type: in vivo, ICR mice; details: 10 mg/kg ig, MRSA ATCC43300, observed 7 days
[6] = biological target: S. aureus Topo IV (Staphylococcus aureus, UniProt P0C1S7); assay: Topo IV inhibitory assay; assay type: biochemical
Chain of S. aureus Topo IV (P0C1S7 whole entry): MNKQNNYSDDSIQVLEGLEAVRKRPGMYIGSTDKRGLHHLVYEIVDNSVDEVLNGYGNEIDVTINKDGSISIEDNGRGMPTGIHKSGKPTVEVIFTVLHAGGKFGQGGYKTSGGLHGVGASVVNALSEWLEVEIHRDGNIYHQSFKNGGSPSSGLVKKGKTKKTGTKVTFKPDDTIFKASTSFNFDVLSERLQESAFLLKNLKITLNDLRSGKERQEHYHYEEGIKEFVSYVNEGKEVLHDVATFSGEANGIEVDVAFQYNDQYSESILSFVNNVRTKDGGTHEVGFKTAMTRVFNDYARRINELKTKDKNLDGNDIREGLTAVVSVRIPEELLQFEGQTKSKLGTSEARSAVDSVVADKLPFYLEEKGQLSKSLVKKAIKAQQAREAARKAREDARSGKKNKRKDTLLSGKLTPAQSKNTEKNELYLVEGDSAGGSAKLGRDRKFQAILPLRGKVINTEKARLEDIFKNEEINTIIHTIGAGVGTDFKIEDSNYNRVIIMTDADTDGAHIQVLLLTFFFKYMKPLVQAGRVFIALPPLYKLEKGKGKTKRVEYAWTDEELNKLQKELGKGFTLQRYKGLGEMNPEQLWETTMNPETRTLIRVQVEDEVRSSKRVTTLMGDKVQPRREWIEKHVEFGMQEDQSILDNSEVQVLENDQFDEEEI
Chain of S. aureus Topo IV (P0C1U9 whole entry partner): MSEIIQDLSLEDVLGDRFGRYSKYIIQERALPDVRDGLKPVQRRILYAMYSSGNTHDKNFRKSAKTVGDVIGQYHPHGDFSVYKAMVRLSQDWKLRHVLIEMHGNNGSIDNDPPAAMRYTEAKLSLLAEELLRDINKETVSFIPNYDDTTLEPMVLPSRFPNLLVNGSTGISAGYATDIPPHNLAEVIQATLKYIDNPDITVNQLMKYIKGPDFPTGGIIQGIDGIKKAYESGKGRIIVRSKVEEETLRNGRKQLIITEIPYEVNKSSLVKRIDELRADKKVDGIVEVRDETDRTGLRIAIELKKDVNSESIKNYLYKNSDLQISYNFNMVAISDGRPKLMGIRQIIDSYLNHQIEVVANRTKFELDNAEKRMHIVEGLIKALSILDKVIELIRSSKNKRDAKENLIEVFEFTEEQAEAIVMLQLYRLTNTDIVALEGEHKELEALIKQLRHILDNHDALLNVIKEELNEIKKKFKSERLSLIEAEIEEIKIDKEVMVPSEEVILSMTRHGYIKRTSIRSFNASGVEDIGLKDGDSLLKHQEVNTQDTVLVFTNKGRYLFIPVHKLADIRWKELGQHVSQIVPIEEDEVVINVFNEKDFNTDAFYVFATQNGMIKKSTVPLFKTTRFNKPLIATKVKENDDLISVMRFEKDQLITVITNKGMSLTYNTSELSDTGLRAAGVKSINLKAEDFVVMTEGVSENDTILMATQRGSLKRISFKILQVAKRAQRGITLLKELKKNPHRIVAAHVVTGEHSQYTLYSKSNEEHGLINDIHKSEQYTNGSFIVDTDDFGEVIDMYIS

Chain of S. aureus gyrase (P0A0K8 whole entry): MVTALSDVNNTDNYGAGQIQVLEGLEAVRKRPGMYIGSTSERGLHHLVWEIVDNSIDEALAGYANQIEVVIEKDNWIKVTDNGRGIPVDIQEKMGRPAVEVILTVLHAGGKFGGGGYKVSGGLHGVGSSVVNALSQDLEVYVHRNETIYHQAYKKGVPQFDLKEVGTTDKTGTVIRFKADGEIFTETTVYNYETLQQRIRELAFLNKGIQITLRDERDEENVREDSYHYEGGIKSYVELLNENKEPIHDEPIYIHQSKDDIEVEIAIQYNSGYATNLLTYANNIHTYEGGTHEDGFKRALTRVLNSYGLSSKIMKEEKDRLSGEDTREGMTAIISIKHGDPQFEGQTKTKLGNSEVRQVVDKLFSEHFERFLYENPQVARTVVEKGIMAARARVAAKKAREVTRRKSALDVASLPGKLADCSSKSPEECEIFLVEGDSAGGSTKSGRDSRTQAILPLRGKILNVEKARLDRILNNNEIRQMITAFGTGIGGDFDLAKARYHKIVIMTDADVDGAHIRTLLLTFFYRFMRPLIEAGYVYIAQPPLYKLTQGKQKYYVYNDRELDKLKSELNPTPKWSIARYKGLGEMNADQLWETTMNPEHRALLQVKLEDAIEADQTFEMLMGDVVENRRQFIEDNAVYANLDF
Chain of S. aureus gyrase (P20831 whole entry partner): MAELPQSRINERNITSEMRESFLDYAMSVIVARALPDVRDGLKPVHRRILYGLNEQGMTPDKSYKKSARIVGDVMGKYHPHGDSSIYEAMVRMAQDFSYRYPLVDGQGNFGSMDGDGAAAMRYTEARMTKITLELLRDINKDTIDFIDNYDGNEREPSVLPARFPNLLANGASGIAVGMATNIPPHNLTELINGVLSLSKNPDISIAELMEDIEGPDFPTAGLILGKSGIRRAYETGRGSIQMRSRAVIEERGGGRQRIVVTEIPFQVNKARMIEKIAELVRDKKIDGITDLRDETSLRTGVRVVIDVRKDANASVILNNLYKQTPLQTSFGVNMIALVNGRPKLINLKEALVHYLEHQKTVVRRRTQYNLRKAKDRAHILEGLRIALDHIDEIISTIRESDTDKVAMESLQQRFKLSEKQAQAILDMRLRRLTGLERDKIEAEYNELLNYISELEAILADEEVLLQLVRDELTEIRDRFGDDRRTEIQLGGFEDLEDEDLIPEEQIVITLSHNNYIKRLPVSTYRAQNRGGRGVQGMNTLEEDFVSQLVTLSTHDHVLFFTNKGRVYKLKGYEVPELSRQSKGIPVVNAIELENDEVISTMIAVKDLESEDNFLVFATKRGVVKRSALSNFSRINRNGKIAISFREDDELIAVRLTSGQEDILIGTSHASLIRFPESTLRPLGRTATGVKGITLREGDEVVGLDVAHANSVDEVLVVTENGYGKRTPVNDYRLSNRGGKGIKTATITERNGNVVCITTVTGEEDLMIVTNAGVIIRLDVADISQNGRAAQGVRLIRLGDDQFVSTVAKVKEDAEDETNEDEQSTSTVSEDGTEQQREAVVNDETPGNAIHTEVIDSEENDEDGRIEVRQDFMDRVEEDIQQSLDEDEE

Compound | IC50 [1] [µM] | IC50 [2] [µM] | MIC [3] [µg/mL] | MIC [4] [µg/mL] | protective effect / survival in mouse model of sepsis [5] | IC50 [6] [µM]
COC(=O)c1cnc(N2CC[C@@H](NC(=O)c3[nH]c(C)c(Cl)c3Cl)[C@@H](OC)C2)s1 [Compound 9, Methyl 2-((3S,4R)-4-(3,4-dichloro-5-methyl-1H-pyrrole-2-carboxamido)-3-methoxypiperidin-1-yl)thiazole-5-carboxylate] | 1.45 ± 0.111 | > 10 | 0.125 (≈ 0.279 µM) | > 128 |  | 
CCOC(=O)c1nnc(N2CC[C@@H](NC(=O)c3[nH]c(C)c(Cl)c3Cl)[C@@H](OC)C2)s1 [Compound 10, Ethyl 5-((3S,4R)-4-(3,4-dichloro-5-methyl-1H-pyrrole-2-carboxamido)-3-methoxy-piperidin-1-yl)-1,3,4-thiadiazole-2-carboxylate] | 0.137 ± 0.013 | 6.87 ± 1.22 | 0.125 (≈ 0.27 µM) | 16 (≈ 34.6 µM) |  | 
COC(=O)c1ccc(N2CC[C@@H](NC(=O)c3[nH]c(C)c(Cl)c3Cl)[C@@H](OC)C2)nc1 [Compound 11, Methyl 6-((3S,4R)-4-(3,4-dichloro-5-methyl-1H-pyrrole-2-carboxamido)-3-methoxy-piperidin-1-yl)nicotinate] | 3.35 ± 0.154 | > 10 | 1 (≈ 2.27 µM) | > 128 |  | 
CCOC(=O)c1cnc(N2CC[C@@H](NC(=O)c3[nH]c(C)c(Cl)c3Cl)[C@@H](OC)C2)nc1 [Compound 12, Ethyl 2-((3S,4R)-4-(3,4-dichloro-5-methyl-1H-pyrrole-2-carboxamido)-3-methoxy-piperidin-1-yl)pyrimidine-5-carboxylate] | 4.87 ± 0.02 | > 10 | 0.125 (≈ 0.274 µM) | > 128 |  | 
COC(=O)c1cnc(N2CC[C@@H](NC(=O)c3[nH]c(C)c(Cl)c3Cl)[C@@H](OC)C2)cn1 [Compound 13, Methyl-5-((3S,4R)-4-(3,4-dichloro-5-methyl-1H-pyrrole-2-carboxamido)-3-methoxypiperidin-1-yl)pyrazine-2-carboxylate] | > 10 | > 10 | > 128 | > 128 |  | 
CCOC(=O)c1nnc(N2CC[C@@H](NC(=O)c3[nH]c(C)c(Cl)c3Cl)[C@@H](OC)C2)o1 [Compound 16, Ethyl-5-((3S,4R)-4-(3,4-dichloro-5-methyl-1H-pyrrole-2-carboxamido)-3-methoxypiperidin-1-yl)-1,3,4-oxadiazole-2-carboxylate] | 2.34 | > 10 | 0.5 (≈ 1.12 µM) | 128 (≈ 287 µM) |  | 
CO[C@H]1CN(c2ccc(F)nn2)CC[C@H]1NC(=O)c1[nH]c(C)c(Cl)c1Cl [Compound 17, 3,4-Dichloro-N-((3S,4R)-1-(6-fluoropyridazin-3-yl)-3-methoxypiperidin-4-yl)-5-methyl-1H-pyrrole-2-carboxamide] | 0.084 ± 0.037 | 8.21 ± 1.21 | 0.25 (≈ 0.621 µM) | 16 (≈ 39.8 µM) |  | 
CO[C@H]1CN(c2ccc(Br)nn2)CC[C@H]1NC(=O)c1[nH]c(C)c(Cl)c1Cl [Compound 18, N-((3S,4R)-1-(6-Bromopyridazin-3-yl)-3-methoxypiperidin-4-yl)-3,4-dichloro-5-methyl-1H-pyrrole-2-carboxamide] | 0.13 ± 0.017 | 7.42 ± 1.01 | 0.03 (≈ 0.0648 µM) | 4 (≈ 8.64 µM) |  | 
CO[C@H]1CN(c2ccc(C(F)(F)F)nn2)CC[C@H]1NC(=O)c1[nH]c(C)c(Cl)c1Cl [Compound 19, 3,4-Dichloro-N-((3S,4R)-3-methoxy-1-(6-(trifluoromethyl)pyridazin-3-yl)piperidin-4-yl)-5-methyl-1H-pyrrole-2-carboxamide] | 0.12 ± 0.047 | 9.31 ± 0.923 | 0.03 (≈ 0.0663 µM) | 16 (≈ 35.4 µM) |  | 
CO[C@H]1CN(c2ccc(C#N)nn2)CC[C@H]1NC(=O)c1[nH]c(C)c(Cl)c1Cl [Compound 20, 3,4-Dichloro-N-((3S,4R)-1-(6-cyanopyridazin-3-yl)-3-methoxypiperidin-4-yl)-5-methyl-1H-pyrrole-2-carboxamide] | 0.701 ± 0.248 | > 10 | 0.06 (≈ 0.147 µM) | > 128 |  | 
CO[C@H]1CN(c2ccc(C(C)=O)nn2)CC[C@H]1NC(=O)c1[nH]c(C)c(Cl)c1Cl [Compound 21, N-((3S,4R)-1-(6-Acetylpyridazin-3-yl)-3-methoxypiperidin-4-yl)-3,4-dichloro-5-methyl-1H-pyrrole-2-carboxamide] | 0.825 ± 0.303 | > 10 | 0.06 (≈ 0.141 µM) | > 128 |  | 
CO[C@H]1CN(c2ccc(/C(C)=N/O)nn2)CC[C@H]1NC(=O)c1[nH]c(C)c(Cl)c1Cl [Compound 23, 3,4-Dichloro-N-((3S,4R)-1-(6-((E)-1-(hydroxyimino)ethyl)pyridazin-3-yl)-3-methoxypiperidin-4-yl)-5-methyl-1H-pyrrole-2-carboxamide] | 1.49 ± 0.234 | 2.56 | ≤ 0.015 | 1 (≈ 2.27 µM) | weak protective effects | 
CO/N=C(\C)c1ccc(N2CC[C@@H](NC(=O)c3[nH]c(C)c(Cl)c3Cl)[C@@H](OC)C2)nn1 [Compound 24, 3,4-Dichloro-N-((3S,4R)-3-methoxy-1-(6-((E)-1-(methoxyimino)ethyl)pyridazin-3-yl)piperidin-4-yl)-5-methyl-1H-pyrrole-2-carboxamide] | 2.07 ± 0.568 | > 10 | 0.03 (≈ 0.0659 µM) | > 128 |  | 
CO[C@H]1CN(c2ccc(/C(C)=N/OCC(=O)O)nn2)CC[C@H]1NC(=O)c1[nH]c(C)c(Cl)c1Cl [Compound 25, 2-((((E)-1-(6-((3S,4R)-4-(3,4-Dichloro-5-methyl-1H-pyrrole-2-carboxamido)-3-methoxypiperidin-1-yl)pyridazine-3-yl)ethylidene)amino)oxy)acetic acid] | 0.172 ± 0.056 | > 10 | 0.25 (≈ 0.501 µM) | > 128 |  | 
CO[C@H]1CN(c2ccc(CO)nn2)CC[C@H]1NC(=O)c1[nH]c(C)c(Cl)c1Cl [Compound 27, 3,4-Dichloro-N-((3S,4R)-1-(6-(hydroxymethyl)pyridazin-3-yl)-3-methoxypiperidin-4-yl)-5-methyl-1H-pyrrole-2-carboxamide] | 0.094 ± 0.04 | 5.11 ± 0.545 | 0.03 (≈ 0.0724 µM) | 4 (≈ 9.66 µM) |  | 
CNC(=O)c1ccc(N2CC[C@@H](NC(=O)c3[nH]c(C)c(Cl)c3Cl)[C@@H](OC)C2)nn1 [Compound 30, 6-((3S,4R)-4-(3,4-Dichloro-5-methyl-1H-pyrrole-2-carboxamido)-3-methoxypiperidin-1-yl)-N-methylpyridazine-3-carboxamide] | 0.696 ± 0.056 | > 10 | 0.125 (≈ 0.283 µM) | 16 (≈ 36.3 µM) |  | 
CCNC(=O)c1ccc(N2CC[C@@H](NC(=O)c3[nH]c(C)c(Cl)c3Cl)[C@@H](OC)C2)nn1 [Compound 31, 6-((3S,4R)-4-(3,4-Dichloro-5-methyl-1H-pyrrole-2-carboxamido)-3-methoxypiperidin-1-yl)-N-ethylpyridazine-3-carboxamide] | 0.576 ± 0.045 | > 10 | 0.125 (≈ 0.275 µM) | > 128 |  | 
CO[C@H]1CN(c2ccc(C(=O)NCCN)nn2)CC[C@H]1NC(=O)c1[nH]c(C)c(Cl)c1Cl [Compound 32, N-(2-Aminoethyl)-6-((3S,4R)-4-(3,4-dichloro-5-methyl-1H-pyrrole-2-carboxamido)-3-methoxypiperidin-1-yl)pyridazine-3-carboxamide] | > 10 | > 10 | 32 (≈ 68 µM) | 64 (≈ 136 µM) |  | 
CO[C@H]1CN(c2ccc(C(=O)N3CCNCC3)nn2)CC[C@H]1NC(=O)c1[nH]c(C)c(Cl)c1Cl [Compound 33, 3,4-Dichloro-N-((3S,4R)-3-methoxy-1-(6-(piperazine-1-carbonyl)pyridazin-3-yl)piperidin-4-yl)-5-methyl-1H-pyrrole-2-carboxamide] | 1.09 ± 0.146 | > 10 | 0.25 (≈ 0.504 µM) | 32 (≈ 64.5 µM) |  | 
CO[C@H]1CN(c2ccc(CN)nn2)CC[C@H]1NC(=O)c1[nH]c(C)c(Cl)c1Cl [Compound 34, N-((3S,4R)-1-(6-(Aminomethyl)pyridazin-3-yl)-3-methoxypiperidin-4-yl)-3,4-dichloro-5-methyl-1H-pyrrole-2-carboxamide] | > 10 | > 10 | 32 (≈ 77.4 µM) | > 128 |  | 
CO[C@H]1CN(c2ccc(C(=N)N)nn2)CC[C@H]1NC(=O)c1[nH]c(C)c(Cl)c1Cl [Compound 35, N-((3S,4R)-1-(6-Carbamimidoylpyridazin-3-yl)-3-methoxypiperidin-4-yl)-3,4-dichloro-5-methyl-1H-pyrrole-2-carboxamide] | > 10 | > 10 | 32 (≈ 75.1 µM) | > 128 |  | 
CO[C@H]1CN(c2ccc(-c3nn[nH]n3)nn2)CC[C@H]1NC(=O)c1[nH]c(C)c(Cl)c1Cl [Compound 36, N-((3S,4R)-1-(6-(2H-Tetrazol-5-yl)pyridazin-3-yl)-3-methoxypiperidin-4-yl)-3,4-dichloro-5-methyl-1H-pyrrole-2-carboxamide] | > 10 | > 10 | 0.5 (≈ 1.11 µM) | 16 (≈ 35.4 µM) |  | 
CO[C@@H]1[C@@H](OC(N)=O)[C@@H](O)[C@H](Oc2ccc3c(O)c(NC(=O)c4ccc(O)c(CC=C(C)C)c4)c(=O)oc3c2C)OC1(C)C [novobiocin (1), novobiocin, reference compound] |  |  | 0.5 (≈ 0.816 µM) | 128 (≈ 209 µM) |  | 0.383 ± 0.12
